Laboratory results published in patent US8461176B2, “Enantiomerically enriched aryloazol-2-yl cyanoethylamino compounds, method of making and method of using thereof” (Merial Limited, priority 2008, dated 2013).

system: Haemonchus contortus; assay: Method A: screening of activity against Haemonchus contortus L1 larvae in microtitre plate (development to L3 / motility); details: Haemonchus contortus, 96 h; test concentration 0.0025 ppm; 4 days assessment
Excerpt: Method A: Screening Method to Test Activity of Compounds Against Haemonchus contortus.

| SMILES | inhibition at 0.0025 ppm |
| --- | --- |
| CC(C#N)(Cn1nc2c(Cl)cc(Cl)c(Cl)c2n1)NC(=O)c1ccc(C(F)(F)F)cc1 (centres unmarked) [Compound 1.101, N-[1-Cyano-1-methyl-2-(4,5,7-trichloro-2H-benzotriazol-2-yl)-ethyl]-4-trifluoromethylbenzamide] | ≥ 90% |
| CC(C#N)(Cn1cc2c(Cl)cc(Cl)c(Cl)c2n1)NC(=O)c1ccc(Cl)cc1 (centres unmarked) [Compound 2.061, N-[1-Cyano-1-methyl-2-(4,6,7-trichloro-2H-indazol-2-yl)ethyl]-4-chlorobenzamide] | ≥ 90% |
| CC(C#N)(Cn1cc2c(Cl)cc(Cl)c(Cl)c2n1)NC(=O)c1ccc(C(F)(F)F)cc1 (centres unmarked) [Compound 2.062, N-[1-Cyano-1-methyl-2-(4,6,7-trichloro-2H-indazol-2-yl)ethyl]-4-trifluoromethylbenzamide] | ≥ 90% |
| CC(C#N)(Cn1cc2c(Cl)cc(Cl)c(Cl)c2n1)NC(=O)c1ccc(C#N)cc1 (centres unmarked) [Compound 2.063, N-[1-Cyano-1-methyl-2-(4,6,7-trichloro-2H-indazol-2-yl)ethyl]-4-cyanobenzamide] | ≥ 90% |
| CC(C#N)(Cn1cc2c(Cl)cc(Cl)c(Cl)c2n1)NC(=O)c1ccc(OC(F)(F)C(F)F)cc1 (centres unmarked) [Compound 2.066, N-[1-Cyano-1-methyl-2-(4,6,7-trichloro-2H-indazol-2-yl)ethyl]-4-(1,1,2,2-tetrafluoroethoxy)benzamide] | ≥ 90% |
| CC(C#N)(Cn1cc2c(Cl)cc(Cl)c(Cl)c2n1)NC(=O)c1ccc(I)cc1 (centres unmarked) [Compound 2.068, N-[1-Cyano-1-methyl-2-(4,6,7-trichloro-2H-indazol-2-yl)ethyl]-4-iodobenzamide] | ≥ 90% |
| CC(C#N)(Cn1cc2ncc(I)cc2n1)NC(=O)c1ccc(OC(F)(F)F)cc1 (centres unmarked) [Compound 3.026, N-[1-Cyano-2-(6-iodo-2H-pyrazolo[4,3-b]pyridin-2-yl)-1-methylethyl]-4-trifluoromethoxybenzamide] | ≥ 90% |

same assay, conditions: Haemonchus contortus, 96 h; test concentration 0.01 ppm; 4 days assessment

| SMILES | inhibition at 0.01 ppm |
| --- | --- |
| CC(C#N)(Cn1nc2c(Br)cc(Cl)c(Br)c2n1)NC(=O)c1ccc(C#N)cc1 (centres unmarked) [Compound 1.098, N-[2-(5-Chloro-4,7-dibromo-2H-benzotriazol-2-yl)-1-cyano-1-methylethyl]-4-cyanobenzamide] | ≥ 90% |
| CC(C#N)(Cn1nc2c(Br)cc(Cl)c(Br)c2n1)NC(=O)c1ccc(OC(F)(F)C(F)F)cc1 (centres unmarked) [Compound 1.099, N-[2-(5-Chloro-4,7-dibromo-2H-benzotriazol-2-yl)-1-cyano-1-methylethyl]-4-(1,1,2,2-tetrafluoroethoxy)benzamide] | ≥ 90% |
| CC(C#N)(Cn1nc2c(Cl)cc(Cl)c(Cl)c2n1)NC(=O)c1ccc(OC(F)(F)C(F)F)cc1 (centres unmarked) [Compound 1.103, N-[1-Cyano-1-methyl-2-(4,5,7-trichloro-2H-benzotriazol-2-yl)-ethyl]-4-(1,1,2,2-tetrafluoroethoxy)benzamide] | ≥ 90% |
| CC(C#N)(Cn1cc2c(Cl)cc(Cl)c(Cl)c2n1)NC(=O)c1ccc([N+](=O)[O-])cc1 (centres unmarked) [Compound 2.069, N-[1-Cyano-1-methyl-2-(4,6,7-trichloro-2H-indazol-2-yl)ethyl]-4-nitrobenzamide] | ≥ 90% |
| CC(C#N)(Cn1cc2c(Cl)cc(Cl)c(Cl)c2n1)NC(=O)c1ccc(C(F)(F)F)cc1F (centres unmarked) [Compound 2.187, N-[1-Cyano-1-methyl-2-(4,6,7-trichloro-2H-indazol-2-yl)ethyl]-2-fluoro-4-trifluoromethylbenzamide] | ≥ 90% |
| CC(C#N)(Cn1cc2c(Cl)cc(Cl)c(Cl)c2n1)NC(=O)c1ccc(C(F)(F)F)c(F)c1 (centres unmarked) [Compound 2.190, N-[1-Cyano-1-methyl-2-(4,6,7-trichloro-2H-indazol-2-yl)ethyl]-3-fluoro-4-trifluoromethylbenzamide] | ≥ 90% |
| CC(C#N)(Cn1nc2cc(Cl)cnc2c1Br)NC(=O)c1ccc(OC(F)(F)F)cc1 (centres unmarked) [Compound 3.019, N-[2-(3-Bromo-6-chloro-2H-pyrazolo[4,3-b]pyridin-2-yl)-1-cyano-1-methylethyl]-4-trifluoromethoxybenzamide] | ≥ 90% |

same assay, conditions: Haemonchus contortus, 96 h; test concentration 0.04 ppm; 4 days assessment

| SMILES | inhibition at 0.04 ppm |
| --- | --- |
| CC(C#N)(Cn1nc2c(Cl)cc(Cl)c(Cl)c2n1)NC(=O)c1ccc(I)cc1 (centres unmarked) [Compound 1.100, N-[1-Cyano-1-methyl-2-(4,5,7-trichloro-2H-benzotriazol-2-yl)-ethyl]-4-iodobenzamide] | ≥ 90% |
| CC(C#N)(Cn1nc2c(Cl)cc(Cl)c(Cl)c2n1)NC(=O)c1ccc(C#N)cc1 (centres unmarked) [Compound 1.102, N-[1-Cyano-1-methyl-2-(4,5,7-trichloro-2H-benzotriazol-2-yl)-ethyl]-4-cyanobenzamide] | ≥ 90% |
| CC(C#N)(Cn1nc2c(Cl)cc(Cl)c(Cl)c2n1)NC(=O)c1ccc(C(F)(F)F)cc1F (centres unmarked) [Compound 1.143, N-[1-Cyano-1-methyl-2-(4,5,7-trichloro-2H-benzotriazol-2-yl)-ethyl]-2-fluoro-4-trifluoromethylbenzamide] | ≥ 90% |
| CC(C#N)(Cn1cc2c(Cl)cc(Cl)c(Cl)c2n1)NC(=O)c1ccc(Oc2ccccc2)cc1 (centres unmarked) [Compound 2.067, N-[1-Cyano-1-methyl-2-(4,6,7-trichloro-2H-indazol-2-yl)ethyl]-4-phenoxybenzamide] | ≥ 90% |
| CC(C#N)(Cn1cc2c(Cl)cc(Cl)c(Cl)c2n1)NC(=O)c1ccc(F)cc1F (centres unmarked) [Compound 2.228, N-[1-Cyano-1-methyl-2-(4,6,7-trichloro-2H-indazol-2-yl)ethyl]-2,4-difluorobenzamide] | ≥ 90% |
| CC(C#N)(Cn1cc2c(Cl)cc(Cl)c(Cl)c2n1)NC(=O)c1ccc(Cl)cc1Cl (centres unmarked) [Compound 2.230, 2,4-Dichloro-N-[1-cyano-1-methyl-2-(4,6,7-trichloro-2H-indazol-2-yl)ethyl]benzamide] | ≥ 90% |

same assay, conditions: Haemonchus contortus, 96 h; test concentration 0.15 ppm; 4 days assessment

| SMILES | inhibition at 0.15 ppm |
| --- | --- |
| C=Cc1cc(Cl)cc2nn(CC(C)(C#N)NC(=O)c3ccc(OC(F)(F)F)cc3)nc12 (centres unmarked) [Compound 1.075, N-[2-(6-Chloro-4-vinyl-2H-benzotriazol-2-yl)-1-cyano-1-methylethyl]-4-trifluoromethoxybenzamide] | ≥ 90% |
| CC(C#N)(Cn1nc2c(Cl)cc(Cl)c(Cl)c2n1)NC(=O)c1ccc(C(F)(F)F)c(F)c1 (centres unmarked) [Compound 1.146, N-[1-Cyano-1-methyl-2-(4,5,7-trichloro-2H-benzotriazol-2-yl)-ethyl]-3-fluoro-4-trifluoromethylbenzamide] | ≥ 90% |
| CCOc1c2cc(Cl)ccc2nn1CC(C)(C#N)NC(=O)c1ccc(OC(F)(F)F)cc1 (centres unmarked) [Compound 2.014, N-[2-(5-Chloro-3-ethoxy-2H-indazol-2-yl)-1-cyano-1-methylethyl]-4-trifluoromethoxybenzamide] | ≥ 90% |
| COc1c2ccccc2nn1CC(C)(C#N)NC(=O)c1ccc(OC(F)(F)F)cc1 (centres unmarked) [Compound 2.016, N-[1-Cyano-2-(3-methoxy-2H-indazol-2-yl)-1-methylethyl]-4-trifluoromethoxybenzamide] | ≥ 90% |
| CCOc1c2ccc(Cl)cc2nn1CC(C)(C#N)NC(=O)c1ccc(OC(F)(F)F)cc1 (centres unmarked) [Compound 2.027, N-[2-(6-Chloro-3-ethoxy-2H-indazol-2-yl)-1-cyano-1-methylethyl]-4-trifluoromethoxybenzamide] | ≥ 90% |
| COc1ccc(C(=O)NC(C)(C#N)Cn2cc3c(Cl)cc(Cl)c(Cl)c3n2)cc1F (centres unmarked) [Compound 2.227, N-[1-Cyano-1-methyl-2-(4,6,7-trichloro-2H-indazol-2-yl)ethyl]-3-fluoro-4-methoxybenzamide] | ≥ 90% |
| CC(C#N)(Cn1cc2c(Cl)cc(Cl)c(Cl)c2n1)NC(=O)c1cccc(Br)c1 (centres unmarked) [Compound 2.229, 3-Bromo-N-[1-cyano-1-methyl-2-(4,6,7-trichloro-2H-indazol-2-yl)ethyl]benzamide] | ≥ 90% |
| CC(C#N)(Cn1cc2ncc(Br)cc2n1)NC(=O)c1ccc(Cl)cc1 (centres unmarked) [Compound 3.046, N-[2-(6-Bromo-2H-pyrazolo[4,3-b]pyridin-2-yl)-1-cyano-1-methylethyl]-4-chlorobenzamide] | ≥ 90% |

same assay, conditions: Haemonchus contortus, 96 h; test concentration 0.3 ppm; 4 days assessment

| SMILES | inhibition at 0.3 ppm |
| --- | --- |
| CC(C#N)(Cn1nc2c(Cl)cc(Cl)c(Cl)c2n1)NC(=O)c1ccc(OC(F)(F)F)cc1 (single isomer, unassigned; (-)) [Compound 1.097, (−)-N-[1-Cyano-1-methyl-2-(4,5,7-trichloro-2H-benzotriazol-2-yl)-ethyl]-4-trifluoromethoxybenzamide] | < 90% |

same assay, conditions: Haemonchus contortus, 96 h; test concentration 0.6 ppm; 4 days assessment

| SMILES | inhibition at 0.6 ppm |
| --- | --- |
| CC(C#N)(Cn1nc2cc(Cl)c(Cl)cc2n1)NC(=O)c1ccc(OC(F)(F)F)cc1 (centres unmarked) [Compound 1.010, N-[1-Cyano-2-(5,6-dichloro-2H-benzotriazol-2-yl)-1-methylethyl]-4-trifluoromethoxybenzamide] | ≥ 90% |
| CCCOc1c2ccc(Cl)cc2nn1CC(C)(C#N)NC(=O)c1ccc(OC(F)(F)F)cc1 (centres unmarked) [Compound 2.029, N-[2-(6-Chloro-3-propoxy-2H-indazol-2-yl)-1-cyano-1-methylethyl]-4-trifluoromethoxybenzamide] | ≥ 90% |
| CCCCOc1c2ccc(Cl)cc2nn1CC(C)(C#N)NC(=O)c1ccc(OC(F)(F)F)cc1 (centres unmarked) [Compound 2.031, N-[2-(6-Chloro-3-butoxy-2H-indazol-2-yl)-1-cyano-1-methylethyl]-4-trifluoromethoxybenzamide] | ≥ 90% |
| CC(C#N)(Cn1cc2nc(Br)c(Br)cc2n1)NC(=O)c1ccc(OC(F)(F)F)cc1 (centres unmarked) [Compound 3.042, N-[1-Cyano-2-(5,6-dibromo-2H-pyrazolo[4,3-b]pyridin-2-yl)-1-methylethyl]-4-trifluoromethoxybenzamide] | ≥ 90% |
| CC(C#N)(Cn1cc2nc(Br)ccc2n1)NC(=O)c1ccc(OC(F)(F)F)cc1 (centres unmarked) [Compound 3.044, N-[1-Cyano-2-(5-bromo-2H-pyrazolo[4,3-b]pyridin-2-yl)-1-methylethyl]-4-trifluoromethoxybenzamide] | ≥ 90% |
| CC(C#N)(Cn1cc2ncccc2n1)NC(=O)c1ccc(OC(F)(F)F)cc1 (centres unmarked) [Compound 3.045, N-[1-Cyano-1-methyl-2-(2H-pyrazolo[4,3-b]pyridin-2-yl)ethyl]-4-trifluoromethoxybenzamide] | ≥ 90% |
